We go through 2 molecules from patent publication US12312333B2, “SK channel positive allosteric modulators” (Chapman University, priority 2021, dated 2025).

In the experiment the target is T1, human KCa2.3 channels (Homo sapiens, UniProt P0DP23+Q9UGI6).
T1 construct: expressed in transfected cells; host or cells: HEK293
In words: Inside-out patch-clamp potentiation of KCa2.3 channels expressed in HEK293 cells. It counts as cell-based. To be noted: for EC50: inside-out patch, HEK293, 0.15 μM Ca2+, read-out: EC50 on potentiating KCa2.3 channels. From the text:
The effects of the two newly synthesized compounds on human KCa2.3 channels (FIG. 7A) were examined.
The effect of newly synthesized compounds on the KCa2.x/KCa3.1 channels was investigated as previously described (Nam, Y. W.; et al, Acta Physiol (Oxf) 2020, e13552; Nam, Y. W.; et al. Scientific reports 2018, 8 (1), 10749). Briefly, the rat KCa2.2a, human KCa2.1, human KCa2.3 or human KCa3.1 channels cDNA constructs were either generated in-house or through molecular cloning services (Genscript). The channel cDNAs, along with CaM and GFP, at a ratio of 7:4:2 (ORF ratios), were transfected into HEK293 cells by the calcium-phosphate method. KCa currents were recorded 1-2 days after transfection, with an Axon200B amplifier (Molecular Devices) at room temperature. The resistance of the patch electrodes ranged from 3-5 MΩ. The pipette solution contained (in mM): 140 KCl, 10 Hepes (pH 7.4), 1 MgSO4. The bath solution containing (in mM): 140 KCl, 10 Hepes (pH 7.2), 1 EGTA, 0.1 Dibromo-BAPTA, and 1 HEDTA was mixed with Ca^2+ to obtain the desired free Ca^2+ concentrations, calculated using the software by Chris Patton of Stanford University (https://somapp.ucdmc.ucdavis.edu/pharmacology/bers/maxchelator/webmaxc/webmaxcS.htm). […] Briefly, a standard curve was generated using the Ca^2+ buffers from the kit and a fluorescence Ca^2+ indicator. Then, the Ca^2+ concentrations of the bath solution were determined through interpolation on the standard curve.
High resistance seals (>1 GΩ) were formed before inside-out patches were obtained. […] Currents were recorded by repetitive 1-s-voltage ramps from −100 mV to +100 mV from a holding potential of 0 mV. […]
To measure the effect of CyPPA (Alomone Labs) and newly synthesized compounds, the intracellular face was exposed to bath solutions with 0.15 μM Ca^2+. One minute after switching of bath solutions, ten sweeps with a 1-s interval were recorded at a series of concentrations of compound in the presence of 0.15 μM Ca^2+. The maximal KCa2.x/KCa3.1 current in response to 10 μM Ca^2+ was then recorded. […]

In general, EC50 refers to the concentration at which the effect is half-maximal. As to `Cc1cc(Nc2ccc(F)c(Cl)c2)nc(-n2nc(C)cc2C)n1` [Compound 2o, N-(3-Chloro-4-fluorophenyl)-2-(3,5-dimethyl-1H-pyrazol-1-yl)-6-methyl-pyrimidin-4-amine], the “potency on KCa2.3 compared to KCa2.2a channels” value is given as “significantly smaller” and the EC50 stood at 190 ± 23 nM.

With `Cc1cc(Nc2cc(Cl)ccc2F)nc(-n2nc(C)cc2C)n1` [Compound 2q, N-(5-Chloro-2-fluorophenyl)-2-(3,5-dimethyl-1H-pyrazol-1-yl)-6-methylpyrimidin-4-amine], the EC50 was found to be 600 ± 35 nM.
